Laboratory results reported in US5100914A, “Arylalkoxycoumarins” (BASF Aktiengesellschaft, priority 1988, dated 1992).

What was measured:
[1] = J. Agric. Food Chem. 34 (2), 185-188; cited from earlier work
MAO A = target: T1, MAO A (Rattus norvegicus, UniProt P21396); assay: determination of monoaminooxidase A inhibition in dilute rat brain homogenate; assay type: biochemical; conditions: 14C-phenylethylamine or 14C-tryptamine 0.4 μmol/l, 20 min, 37° C., logit-log regression, read-out: IC50 MAO A (mean inhibitory concentration)
T1 construct: carried out in dilute rat brain homogenate; from tissue; host or cells: rat brain homogenate
T1 sequence (P21396 1-526): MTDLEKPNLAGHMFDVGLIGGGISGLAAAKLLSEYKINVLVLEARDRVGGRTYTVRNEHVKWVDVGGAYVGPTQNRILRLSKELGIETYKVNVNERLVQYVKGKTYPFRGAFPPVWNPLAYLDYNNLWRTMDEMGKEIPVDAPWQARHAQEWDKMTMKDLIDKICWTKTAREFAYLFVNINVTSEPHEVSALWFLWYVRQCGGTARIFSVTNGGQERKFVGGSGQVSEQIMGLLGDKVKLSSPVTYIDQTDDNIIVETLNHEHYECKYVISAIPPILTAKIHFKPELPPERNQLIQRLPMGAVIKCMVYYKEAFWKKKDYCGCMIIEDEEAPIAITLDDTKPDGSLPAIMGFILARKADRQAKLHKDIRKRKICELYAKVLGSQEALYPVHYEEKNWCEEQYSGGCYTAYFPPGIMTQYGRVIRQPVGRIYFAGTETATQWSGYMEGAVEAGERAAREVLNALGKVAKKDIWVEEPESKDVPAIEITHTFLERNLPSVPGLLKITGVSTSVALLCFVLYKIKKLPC
Description: (§1) The MAO-inhibiting activity of the novel compounds can be determined using standard methods. […] This mixture was incubated for 20 minutes at 37° C. […] The blank value was determined in similar mixtures with an incubation time of t =0 min.
(§2) From the inhibitory values determined at the various inhibitor concentrations against the controls, the mean inhibitory concentration (IC50) was calculated by linear regression following logit-log transformation.

MAO B = target: T2, MAO B (Rattus norvegicus, UniProt P19643); assay: determination of monoaminooxidase B inhibition in dilute rat brain homogenate; assay type: biochemical; conditions: 20 min; for IC50: 14C-phenylethylamine or 14C-tryptamine 0.4 μmol/l, 37° C., logit-log regression, read-out: IC50 MAO B (mean inhibitory concentration); for MAO B selectivity (IC50 MAO A / IC50 MAO B): selectivity ratio from the two IC50 values
T2 construct: carried out in dilute rat brain homogenate; from tissue; host or cells: rat brain homogenate
T2 sequence (P19643 1-520): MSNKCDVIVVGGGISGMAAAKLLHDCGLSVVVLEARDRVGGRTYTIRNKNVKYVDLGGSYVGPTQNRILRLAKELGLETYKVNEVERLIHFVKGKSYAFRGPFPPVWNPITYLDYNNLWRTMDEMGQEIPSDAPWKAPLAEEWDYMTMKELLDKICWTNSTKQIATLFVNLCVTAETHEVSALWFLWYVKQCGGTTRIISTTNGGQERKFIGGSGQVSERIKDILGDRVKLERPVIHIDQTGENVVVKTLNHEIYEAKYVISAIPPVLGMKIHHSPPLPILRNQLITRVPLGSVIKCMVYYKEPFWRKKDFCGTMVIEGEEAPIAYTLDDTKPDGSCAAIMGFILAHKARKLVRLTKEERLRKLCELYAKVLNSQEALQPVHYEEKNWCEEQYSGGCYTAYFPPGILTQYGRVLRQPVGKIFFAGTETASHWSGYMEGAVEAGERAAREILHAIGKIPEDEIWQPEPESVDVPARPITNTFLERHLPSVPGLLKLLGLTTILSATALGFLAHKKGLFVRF
Description: as §1, §2

Row | Compound | IC50 (MAO A) [nM] | IC50 (MAO B) [nM] | MAO B selectivity (IC50 MAO A / IC50 MAO B) (MAO B) | fungicidal activity [1]
1 | Cc1cc(=O)oc2cc(OCc3c(F)c(F)c(F)c(F)c3F)ccc12 [7-pentafluorophenylmethoxy-4-methylcoumarin] |  |  |  | has fungicidal activity
2 | Cc1c(C)c2ccc(OCc3ccc4ccccc4c3)cc2oc1=O [Example 4, 3,4-Dimethyl-7-(2-naphthyl)-methoxycoumarin] | > 10000 | 11 | > 900 | 
3 | Cc1ccc(C)c(COc2ccc3c(C)c(C)c(=O)oc3c2)c1 [Example 10, 3,4-Dimethyl-7-(2,5-dimethylphenyl)-methoxycoumarin] | > 10000 | 3.7 | > 2700 | 
4 | CCc1cc2c(C)c(C)c(=O)oc2cc1OCCc1ccccc1 [Example 23, 6-Ethyl-3,4-dimethyl-7-(2-phenyl)-ethoxycoumarin] | > 10000 | 13 | > 770 | 
5 | CC(C)c1ccc(COc2ccc3ccc(=O)oc3c2)cc1 [Example 26, 7-(4-Isopropylphenyl)-methoxycoumarin] | > 10000 | 1.8 | > 5600 | 
6 | Cc1cc(=O)oc2cc(OCc3ccc(C(C)C)cc3)ccc12 [Example 27, 4-Methyl-7-(4-isopropylphenyl)-methoxycoumarin] | > 10000 | 4.7 | > 2100 | 

The next lines start with results.

Row | IC50 (MAO A) [nM] | IC50 (MAO B) [nM] | MAO B selectivity (IC50 MAO A / IC50 MAO B) (MAO B) | Compound | fungicidal activity [1]
7 | > 10000 | 2.8 | > 3600 | Cc1cc2ccc(OCc3ccc(C(C)C)cc3)cc2oc1=O [Example 28, 3-Methyl-7-(4-isopropylphenyl)-methoxycoumarin] | 
8 | > 10000 | 4.3 | > 2400 | Cc1c(Cl)c(=O)oc2cc(OCc3ccc(C(C)C)cc3)ccc12 [Example 33, 3-Chloro-4-methyl-7-(4-isopropylphenyl)-methoxycoumarin] | 
9 | 1200 | 4.2 | 280 | Cc1c(C)c2ccc(OCCCc3ccccc3)cc2oc1=O [Example 35, 3,4-Dimethyl-7-(3-phenylpropoxy)-coumarin] | 
10 | > 10000 | 31 | > 320 | Cc1c(C)c2cc(Cl)c(OCc3ccc(C(C)C)cc3)cc2oc1=O [Example 38, 6-Chloro-3,4-dimethyl-7-(4-isopropylphenyl)-methoxycoumarin] | 
